Structures are written as SMILES. Some results are limits rather than exact numbers.

Drawing on US9493432B2, “Cyclopentylbenzamide derivatives and their use for the treatment of psychotic and cognitive disorders” (Takeda Pharmaceutical Company Limited, priority 2013, dated 2016), this text covers IC50 for 28 molecules.

One assay addresses human orexin receptor 2 (Homo sapiens (Human), UniProt O43614). Description: Orexin antagonist activity, intracellular calcium FLIPR assay (orexin receptor 2). The assay is classed as cell-based. As to conditions: RBL-2H3 cells stably expressing human orexin receptor 2; Ca2+ dye FLIPR; compound 15 minutes before orexin-A at approximately 80% maximal response; read-out: Human Orexin2R IC50. The method, then:
(§1) Orexin antagonist activity was determined by measuring changes in intracellular calcium levels using a Ca^2+ sensitive fluorescent dye. The changes in fluorescent signal were monitored by Fluorescent Imaging Plate Reader (FLIPR™) technology available from Molecular Devices, LLC, U.S.A. Orexin mediated increases in intracellular Ca^2+ concentration were readily detected upon activation with orexin-A. Twenty-four hours prior to the assay, RBL-2H3 cells stably expressing either human orexin receptor 1 or human orexin receptor 2 were seeded in cell culture medium in black, clear-bottom 384-well plates (commercially available from Corning Inc., U.S.A.) and grown overnight at 37° C., 5% CO2. On the day of the assay, cell culture media was removed and cells were loaded with Calcium 5 Dye (commercially sold by Molecular Devices, LLC, U.S.A.) for 1 hour at 37° C., 5% CO2. Test compounds (at 10 point half log concentration response curves from 10 μM) were added to cells for 15 minutes prior to the addition of orexin-A to all wells, to achieve a final concentration that produces approximately an 80% maximal response. The IC50 values were determined from ten point concentration response curves. Curves were generated using the average of two wells for each data point.

A further assay deals with human orexin receptor 1 (Homo sapiens (Human), UniProt O43613). Description: Orexin antagonist activity, intracellular calcium FLIPR assay (orexin receptor 1). As to conditions: RBL-2H3 cells stably expressing human orexin receptor 1; Ca2+ dye FLIPR; compound 15 minutes before orexin-A at approximately 80% maximal response; read-out: Human Orexin1R IC50. Type of assay: cell-based. The method, then:
as §1

Chain of human orexin receptor 1 (O43613 whole entry): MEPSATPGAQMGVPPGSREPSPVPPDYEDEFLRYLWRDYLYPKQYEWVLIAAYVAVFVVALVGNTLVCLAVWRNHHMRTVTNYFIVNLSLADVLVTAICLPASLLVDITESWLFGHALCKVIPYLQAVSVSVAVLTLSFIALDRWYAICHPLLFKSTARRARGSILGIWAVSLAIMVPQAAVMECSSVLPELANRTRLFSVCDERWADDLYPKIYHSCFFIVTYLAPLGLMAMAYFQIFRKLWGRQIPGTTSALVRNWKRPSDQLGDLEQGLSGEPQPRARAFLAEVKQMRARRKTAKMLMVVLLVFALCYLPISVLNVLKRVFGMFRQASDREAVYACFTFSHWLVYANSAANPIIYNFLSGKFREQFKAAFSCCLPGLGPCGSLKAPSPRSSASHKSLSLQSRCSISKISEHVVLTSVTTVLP
Chain of human orexin receptor 2 (O43614 whole entry): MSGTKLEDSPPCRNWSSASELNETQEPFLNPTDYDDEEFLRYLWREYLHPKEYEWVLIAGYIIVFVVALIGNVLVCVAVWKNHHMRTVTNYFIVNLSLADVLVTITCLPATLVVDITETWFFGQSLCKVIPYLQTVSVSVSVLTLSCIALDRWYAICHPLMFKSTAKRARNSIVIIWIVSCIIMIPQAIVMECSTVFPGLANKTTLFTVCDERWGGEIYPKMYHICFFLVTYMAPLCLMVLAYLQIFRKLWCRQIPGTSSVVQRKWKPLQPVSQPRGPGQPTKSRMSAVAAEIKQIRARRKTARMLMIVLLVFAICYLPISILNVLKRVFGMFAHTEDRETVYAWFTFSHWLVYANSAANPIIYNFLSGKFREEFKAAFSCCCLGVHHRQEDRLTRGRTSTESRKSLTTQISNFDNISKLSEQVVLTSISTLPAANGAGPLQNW

For the molecule `O=C(NC1COCC1Nc1nc2ccc(F)cc2s1)c1ccccc1-n1nccn1` (single isomer, unassigned) [Example 100, trans-N-{4-[(6-Fluoro-1,3-benzothiazol-2-yl)amino]oxolan-3-yl}-2-(2H-1,2,3-triazol-2-yl)benzamide], the IC50 at human orexin receptor 2 is greater than 10000 nM; at human orexin receptor 1, 22 nM.

As to `COc1cccc(OC)c1C(=O)N[C@@H]1CCC[C@H]1Nc1nc2ccccc2s1` [Example 11, N-[(1R,2R)-2-[(1,3-Benzothiazol-2-yl)amino]cyclopentyl]-2,6-dimethoxybenzamide], the figures for the IC50 at human orexin receptor 2 and on human orexin receptor 1 were 1800 nM and 360 nM, respectively.

For the molecule `COc1cccc(OC)c1C(=O)NC1CCCC1Cc1ccc2ccccc2n1` (centres unmarked) [Example 98, 2,6-Dimethoxy-N-[2-(quinolin-2-ylmethyl)cyclopentyl]benzamide], the IC50 at human orexin receptor 2 came out at 2100 nM; on human orexin receptor 1 it was 310 nM.

For `O=C(N[C@H]1CCC[C@@H]1Nc1nc2ccccc2o1)c1ccccc1-n1nccn1` [Example 86, N-[(1S,2S)-2-[(1,3-Benzoxazol-2-yl)amino]cyclopentyl]-2-(2H-1,2,3-triazol-2-yl)benzamide], the values for the IC50 at human orexin receptor 2 and at human orexin receptor 1 were greater than 10000 nM and 150 nM, respectively.

Take `CN(C(=O)c1ccccc1Cl)[C@H]1CCC[C@@H]1Nc1nc2ccc(F)cc2s1` [Example 78, 2-Chloro-N-[(1S,2S)-2-[(6-fluoro-1,3-benzothiazol-2-yl)amino]cyclopentyl]-N-methylbenzamide]: the IC50 on human orexin receptor 2 is 2400 nM; at human orexin receptor 1, 20 nM.

As to `CN(C(=O)c1ccccc1-n1nccn1)[C@H]1CCC[C@@H]1Nc1nc2ccc(F)cc2s1` [Example 80, N-[(1S,2S)-2-[(6-Fluoro-1,3-benzothiazol-2-yl)amino]cyclopentyl]-N-methyl-2-(2H-1,2,3-triazol-2-yl)benzamide], the IC50 on human orexin receptor 2 came out at 650 nM; on human orexin receptor 1 it was 1 nM.

On to `O=C(N[C@H]1CCC[C@@H]1Nc1nc2ccc(F)cc2s1)c1ccccc1-n1ccnn1` [Example 73, N-[(1S,2S)-2-[(6-Fluoro-1,3-benzothiazol-2-yl)amino]cyclopentyl]-2-(1H-1,2,3-triazol-1-yl)benzamide], for which the IC50 on human orexin receptor 2 was greater than 10000 nM; at human orexin receptor 1, 35 nM.

For the molecule `COc1ccc(OC)c(C(=O)N[C@H]2CCC[C@@H]2Nc2nc3ccc(F)cc3s2)c1` [Example 41, N-[(1S,2S)-2-[(6-Fluoro-1,3-benzothiazol-2-yl)amino]cyclopentyl]-2,5-dimethoxybenzamide], the IC50 on human orexin receptor 2 was determined as 2100 nM; at human orexin receptor 1, 16 nM.

Turning to `COc1cccc(OC)c1C(=O)N[C@@H]1COC[C@H]1Nc1nc2ccc(F)cc2s1` (relative stereo) [Example 65, trans-N-{4-[(6-Fluoro-1,3-benzothiazol-2-yl)amino]oxolan-3-yl}-2,6-dimethoxybenzamide], the IC50 at human orexin receptor 2 was greater than 10000 nM; on human orexin receptor 1, 29 nM.

As for `O=C(NC1CC(F)(F)CC1Nc1nc2ccc(F)cc2s1)c1ccccc1-n1nccn1` (single isomer, unassigned) [Example 103, N-{4,4-Difluoro-2-[(6-fluoro-1,3-benzothiazol-2-yl)amino]cyclopentyl}-2-(2H-1,2,3-triazol-2-yl)benzamide], the IC50 on human orexin receptor 2 was 627 nM; on human orexin receptor 1, 266 nM.

For the molecule `O=C(N[C@H]1CCC[C@@H]1Nc1nc2cccnc2s1)c1ccccc1-n1nccn1` [Example 95, N-[(1S,2S)-2-({[1,3]Thiazolo[5,4-b]pyridin-2-yl}amino)cyclopentyl]-2-(2H-1,2,3-triazol-2-yl)benzamide], the IC50 at human orexin receptor 2 is greater than 10000 nM; on human orexin receptor 1, 41 nM.

`COc1cccc(OC)c1C(=O)NC1C[C@@H](O)CC1Nc1nc2ccc(Cl)cc2s1` (stereo in doubt) [Example 25, N-[(1S,2R,4R)-2-[(6-Chloro-1,3-benzothiazol-2-yl)amino]-4-hydroxycyclopentyl]-2,6-dimethoxybenzamide]: the IC50 on human orexin receptor 2 was found to be 130 nM; on human orexin receptor 1, 340 nM.

As to `O=C(NC1CC(F)(F)CC1Nc1nc2ccc(F)cc2s1)c1ccccc1-n1nccn1` (single isomer, unassigned) [Example 104, N-{4,4-Difluoro-2-[(6-fluoro-1,3-benzothiazol-2-yl)amino]cyclopentyl}-2-(2H-1,2,3-triazol-2-yl)benzamide], the IC50 at human orexin receptor 2 was found to be 4500 nM; at human orexin receptor 1 it was 13 nM.

Consider `CCOc1cccc(OCC)c1C(=O)N[C@H]1CCC[C@H]1Nc1nc2ccccc2o1` [Example 18, N-[(1S,2R)-2-[(1,3-Benzoxazol-2-yl)amino]cyclopentyl]-2,6-diethoxy-benzamide], for which the IC50 at human orexin receptor 2 turned out to be 460 nM; on human orexin receptor 1, 25 nM.

Consider `O=C(N[C@H]1CCC[C@@H]1Nc1nc2ccc(F)cc2s1)c1ccccc1-n1cncn1` [Example 44, N-[(1S,2S)-2-[(6-Fluoro-1,3-benzothiazol-2-yl)amino]cyclopentyl]-2-(1H-1,2,4-triazol-1-yl)benzamide], for which the IC50 at human orexin receptor 2 was greater than 10000 nM; at human orexin receptor 1, 51 nM.

`Cc1ccc(-n2nccn2)c(C(=O)N[C@H]2CCC[C@@H]2Nc2ccc3ccccc3n2)c1` [Example 20, 5-Methyl-N-[(1S,2S)-2-[(quinolin-2-yl)amino]cyclopentyl]-2-(2H-1,2,3-triazol-2-yl)benzamide]: the results for the IC50 on human orexin receptor 2 and on human orexin receptor 1 were 4100 nM and 290 nM, respectively.

On to `Cc1noc(-c2ccccc2C(=O)N[C@H]2CCC[C@@H]2Nc2nc3ccc(F)cc3s2)n1` [Example 39, N-[(1S,2S)-2-[(6-Fluoro-1,3-benzothiazol-2-yl)amino]cyclopentyl]-2-(3-methyl-1,2,4-oxadiazol-5-yl)benzamide], for which the IC50 at human orexin receptor 2 was found to be 3800 nM; at human orexin receptor 1, 14 nM.

With `COc1cccc(OC)c1C(=O)N[C@H]1CCC[C@@H]1Nc1cnc2ccccc2n1` [Example 2, 2,6-Dimethoxy-N-((1S,2S)-2-(quinoxalin-2-ylamino)cyclopentyl)benzamide], the IC50 on human orexin receptor 2 came to 6500 nM; at human orexin receptor 1, 36 nM.

On to `COc1ccc(C)cc1C(=O)N[C@H]1CCC[C@@H]1Nc1nc2ccc(F)cc2s1` [Example 67, N-[(1S,2S)-2-[(6-Fluoro-1,3-benzothiazol-2-yl)amino]cyclopentyl]-2-methoxy-5-methylbenzamide], for which the IC50 on human orexin receptor 2 is 6500 nM; on human orexin receptor 1, 110 nM.

`COc1cccc(OC)c1C(=O)N[C@H]1CCC[C@@H]1Nc1nc2ccccc2s1` [Example 4, N-[(1S,2S)-2-[(1,3-Benzothiazol-2-yl)amino]cyclopentyl]-2,6-dimethoxybenzamide]: the IC50 on human orexin receptor 2 was greater than 10000 nM; on human orexin receptor 1, 12 nM.

As for `COc1cccc(OC)c1C(=O)N[C@H]1CCC[C@@H]1Nc1nc2cc(F)ccc2s1` [Example 84, N-[(1S,2S)-2-[(5-Fluoro-1,3-benzothiazol-2-yl)amino]cyclopentyl]-2,6-dimethoxybenzamide], the IC50 at human orexin receptor 2 is greater than 10000 nM; at human orexin receptor 1, 45 nM.

For the molecule `Cc1ccccc1C(=O)NC1CCC[C@@H]1Nc1nc2ccc(F)cc2s1` (stereo in doubt) [Example 51, N-[(1S,2S)-2-[(6-Fluoro-1,3-benzothiazol-2-yl)amino]cyclopentyl]-2-methylbenzamide], the IC50 at human orexin receptor 2 was 4000 nM; on human orexin receptor 1 it was 250 nM.

In the case of `O=C(NC1COCC1Nc1nc2ccc(F)cc2s1)c1ccccc1-n1nccn1` (single isomer, unassigned) [Example 101, trans-N-{4-[(6-Fluoro-1,3-benzothiazol-2-yl)amino]oxolan-3-yl}-2-(2H-1,2,3-triazol-2-yl)benzamide], the values for the IC50 at human orexin receptor 2 and on human orexin receptor 1 were 3800 nM and 730 nM, respectively.

Take `COc1cccc(OC)c1C(=O)N[C@H]1CCC[C@@H]1N(C)c1nc2ccc(F)cc2s1` [Example 8, N-[(1S,2S)-2-[(6-Fluoro-1,3-benzothiazol-2-yl)(methyl)amino]cyclopentyl]-2,6-dimethoxybenzamide]: the half-maximal inhibitory concentration (IC50) was determined as 2100 nM at human orexin receptor 2 and 35 nM at human orexin receptor 1.

Turning to `O=C(N[C@H]1CCC[C@@H]1Nc1nc2c(F)cc(F)cc2s1)c1ccccc1-n1nccn1` [Example 93, N-[(1S,2S)-2-[(4,6-Difluoro-1,3-benzothiazol-2-yl)amino]cyclopentyl]-2-(2H-1,2,3-triazol-2-yl)benzamide], the values for the IC50 on human orexin receptor 2 and on human orexin receptor 1 were 6200 nM and 14 nM, respectively.

Turning to `O=C(N[C@H]1CCC[C@@H]1Nc1nc2ccc(F)cc2s1)c1ccccc1Cl` [Example 37, 2-Chloro-N-[(1S,2S)-2-[(6-fluoro-1,3-benzothiazol-2-yl)amino]cyclopentyl]benzamide], the IC50 at human orexin receptor 2 was 3500 nM; at human orexin receptor 1, 11 nM.

In the case of `COc1cccc(OC)c1C(=O)NC1CCCC1Cc1nc2ccc(Cl)cc2s1` (centres unmarked) [Example 32, N-{2-[(6-Chloro-1,3-benzothiazol-2-yl)methyl]cyclopentyl}-2,6-dimethoxybenzamide], the IC50 on human orexin receptor 2 came out at 980 nM; on human orexin receptor 1, 900 nM.

For `COc1cccc(OC)c1C(=O)NC1CCCC1Cc1ccc2ccccc2n1` (centres unmarked) [Example 29, 2,6-Dimethoxy-N-[2-(quinolin-2-ylmethyl)cyclopentyl]benzamide], the results for the IC50 at human orexin receptor 2 and at human orexin receptor 1 were 2900 nM and 550 nM, respectively.
